Measured values: article PMC4520450, “Procyanidins Negatively Affect the Activity of the Phosphatases of Regenerating Liver” (PLoS ONE, 2015)

Assay: Cytotoxicity by flow cytometry with propidium iodide
Format: cell-based
Settings: human
From the text: To study the effects of procyanidins on PRL-1 and PRL-3 in cells, the trimeric catechin (procyanidin C2, 9) was chosen as a representative example due to its strong inhibitor activity in vitro toward both PRL-s and its smaller size compared to the higher oligomers, which could influence cell permeability. HEK293 cells stably overexpressing PRL-1 and PRL-3 were chosen as model cell line. As a control cell line, HEK293 cells transfected with the empty vector were utilized (see the Experimental Procedures). To avoid false positive results due to cell death, first cell viability was studied in a concentration dependent manner by using flow cytometry. Therefore, cells were treated with different concentrations of compound 9 for 24 h, harvested, and then the ratio of living to dead cells was determined using propidium iodide (Fig 5).
Fig 5 Cytotoxicity of procyanidin C2 (9) in HEK293 cells. Cells were treated with 50, 150 or 300 μM of 9 in the growth medium for 24 h. Cells were harvested, resuspended in PBS buffer and incubated with propidium iodide (1 mg/mL) for 5 min on ice. 10,000 events were set for the number of living cells. The number of living cells was divided by the number of total cells counted and given as percentage of cell survival. Data represent means ± standard errors of the mean (n = 3).
Fig 7 A) Cytotoxicity of procyanidin B3 (8) in HEK293 cells. Cells were treated with 50, 75 or 100 μM of 8 in the growth medium for 24 h. Cells were harvested, resuspended in PBS buffer and incubated with propidium iodide (1 mg/mL) for 5 min on ice. 10,000 events were set for the number of living cells. The number of living cells was divided by the number of total cells counted and given as percentage of cell survival. Data represent means ± standard errors of the mean (n = 3). B) Wound healing abilities of PRL-1 or PRL-3 overexpressing or empty vector control HEK293 cell lines were analyzed in the presence of compound 8 or medium only. Cells were seeded at a concentration of 800,000 cells per insert and procyanidin B3 (8) was added at a concentration of 50 and 75 μM. Speed of migration is shown for combined data from different replicates, as mean ± SD (n = 40–77). Two-sided t-tests with Welsh correction were performed for p < 0.05. ns = not significant;***: < 0.001; **: < 0.01; *: < 0.05.
Flow cytometry was used to determine the ratio of living to dead cells compared to the control. HEK293 empty vector and PRL-3 overexpressing cells were seeded in a transparent 6-well plate with 400,000 cells/well in DMEM medium without Phenol red, supplemented with 10% FBS, 1% glutamine and 0.2% hygromycin and blasticidin. For induction of PRL-3 expression, 0.1% tetracycline was added. After 24 hours incubation at 37°C, procyanidins 8 or 9 dissolved in growth medium and growth medium as a control were added to the respective wells in the indicated final concentrations and incubated for another 24 hours. Then, the medium was removed and collected in Eppendorf tubes, centrifuged for 5 min at 500 rpm and the supernatant removed. Then 1 mL of PBS (10%) was added to each well and the cells detached with a cell scraper. […] After thorough mixing the cell suspension was injected into a LSR- Fortessa Bench Top Analyzer (Beckton Dickinson) and the number of living and dead cells counted. […] The number of living cells was divided by the number of total cells counted and given as percentage of cell survival.

Oc1cc(O)c2c(c1)O[C@H](c1ccc(O)c(O)c1)[C@@H](O)[C@@H]2c1c(O)cc(O)c2c1O[C@H](c1ccc(O)c(O)c1)[C@@H](O)[C@@H]2c1c(O)cc(O)c2c1O[C@H](c1ccc(O)c(O)c1)[C@@H](O)C2 [Procyanidin C2 (9), Procyanidin C2]
viability at 24 h, 150 µM: ~50%
viability at 24 h, 300 µM: ~50%
